Results reported in patent US8507509B2, “Saturated and insaturated bi- or tricyclic aryloxyacetamine derivatives and their use as fungicides” (Syngenta Crop Protection LLC, priority 2007, dated 2013).

Assays:
[1] = system: Fusarium culmorum; assay: Fusarium culmorum (root rot), liquid culture growth inhibition in nutrient broth; type: cell-based; conditions: PDB broth, 24 C, inhibition of growth determined photometrically after 48 hrs, read-out: control of fungal infection, Fusarium culmorum
Outline: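 Fusarium culmorum conidia from cryogenic storage were mixed into potato dextrose broth and added to compound pre-dispensed from DMSO (diluted in 0.025% Tween20). Incubated at 24 C in the dark; growth inhibition read photometrically after 48 hrs.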

[2] = system: Botrytis cinerea; assay: Botrytis cinerea (grey mould), bean leaf disk assay, preventive; type: in vivo; conditions: foliar, 96 h, 200 ppm, bean leaf disks, assessed four days after inoculation, read-out: control of fungal infection, Botrytis cinerea
[3] = system: Erysiphe graminis f.sp. tritici; assay: Erysiphe graminis f.sp. tritici (wheat powdery mildew), wheat leaf segment assay, preventive; type: in vivo; conditions: Blumeria graminis, foliar, 96 h; 200 ppm; wheat leaf segments; assessed four days after inoculation; read-out: control of fungal infection, Etysiphe graminis f.sp. tritici
[4] = system: Puccinia recondita f.sp. tritici; assay: Puccinia recondita f.sp. tritici (wheat brown rust), wheat leaf segment assay, preventive; type: in vivo; conditions: foliar, 216 h, 200 ppm, wheat leaf segments, assessed nine days after inoculation, read-out: control of fungal infection, Puccinia recondite f.sp. tritici
[5] = system: Pythium ultimum; assay: Pythium ultimum (Damping off), liquid culture growth inhibition in potato dextrose broth; type: cell-based; conditions: Globisporangium ultimum; 20 ppm; potato dextrose broth, 24° C.; inhibition of growth determined photometrically after 48 hours; read-out: control of fungal infection, Pythium ultimum
[6] = system: Septoria tritici; assay: Septoria tritici (leaf blotch), liquid culture growth inhibition in nutrient broth; type: cell-based; conditions: Zymoseptoria tritici; 200 ppm; PDB broth, 24 C; inhibition of growth determined photometrically after 72 hrs; read-out: control of fungal infection, Septoria tritici
[7] = system: Plasmopara viticola; assay: Plasmopara viticola (downy mildew of grapevine), grapevine leaf disk assay, preventive; type: in vivo; conditions: foliar, 168 h, 200 ppm, grapevine leaf disks, assessed seven days after inoculation, read-out: control of fungal infection, Plasmopara viticola
[8] = system: Septoria nodorum; assay: Septoria nodorum (wheat glume blotch), wheat leaf segment assay, preventive; type: in vivo; conditions: Parastagonospora nodorum, foliar, 96 h; 200 ppm; wheat leaf segments; assessed four days after inoculation; read-out: control of fungal infection, Septoria nodorum
[9] = system: Phytophthora infestans; assay: whole plant or invertebrate; type: in vivo; conditions: in Solanum lycopersicum, foliar, 96 h, read-out: control of fungal infection, Phytophthora infestans

C#Cc1cnc2ccc(OC(CC)C(=O)NC(C)(C)C=NOCC=C)cc2c1 (stereo not drawn) [Compound No. 149, N-(2-Allyloxyimino-1,1-dimethyl-ethyl)-2-(3-ethynyl-quinolin-6-yloxy)-butyramide]
≥ 60%: inhibition of growth at 200 ppm [1] | pest or weed control at 200 ppm [2] | pest or weed control at 200 ppm [3] | pest or weed control at 200 ppm [4] | inhibition of growth at 20 ppm [5] | inhibition of growth at 200 ppm [6]

C#Cc1cnc2ccc(OC(CC)C(=O)NC(C)(C)C=NOCC)cc2c1 (stereo not drawn) [Compound No. 148, N-(2-Ethoxyimino-1,1-dimethyl-ethyl)-2-(3-ethynyl-quinolin-6-yloxy)-butyramide]
≥ 60%: pest or weed control at 200 ppm [7] | pest or weed control at 200 ppm [8] | inhibition of growth at 200 ppm [1] | pest or weed control at 200 ppm [3] | pest or weed control at 200 ppm [4] | inhibition of growth at 20 ppm [5] | pest or weed control at 200 ppm [9] | inhibition of growth at 200 ppm [6]

C#Cc1cnc2ccc(OC(SC)C(=O)NC3(C=NO)CCC3)cc2c1 (stereo not drawn) [Compound No. 80, 2-(3-Ethynyl-quinolin-6-yloxy)-N-[1-(hydroxyimino-methyl)-cyclobutyl]-2-methylsulfanyl-acetamide]
≥ 60%: pest or weed control at 200 ppm [7] | pest or weed control at 200 ppm [8] | inhibition of growth at 200 ppm [1] | pest or weed control at 200 ppm [3] | pest or weed control at 200 ppm [4] | inhibition of growth at 20 ppm [5] | pest or weed control at 200 ppm [9] | inhibition of growth at 200 ppm [6]

C#Cc1cnc2c(C)cc(OC(CC)C(=O)NC(C)(C)C=NO)cc2c1 (stereo not drawn) [Compound No. 139, 2-(3-Ethynyl-8-methyl-quinolin-6-yloxy)-N-(2-hydroxyimino-1,1-dimethyl-ethyl)-butyramide]
≥ 60%: pest or weed control at 200 ppm [7] | pest or weed control at 200 ppm [8] | inhibition of growth at 200 ppm [1] | pest or weed control at 200 ppm [3] | pest or weed control at 200 ppm [4] | inhibition of growth at 20 ppm [5] | pest or weed control at 200 ppm [9] | inhibition of growth at 200 ppm [6]

C#Cc1cnc2ccc(OC(SC)C(=O)NC(C)(C#N)C=NOC)cc2c1 (stereo not drawn) [Compound No. 59, N-(1-Cyano-2-methoxyimino-1-methyl-ethyl)-2-(3-ethynyl-quinolin-6-yloxy)-2-methylsulfanyl-acetamide]
≥ 60%: pest or weed control at 200 ppm [7] | pest or weed control at 200 ppm [8] | inhibition of growth at 200 ppm [1] | pest or weed control at 200 ppm [2] | pest or weed control at 200 ppm [3] | pest or weed control at 200 ppm [4] | pest or weed control at 200 ppm [9] | inhibition of growth at 200 ppm [6]

CON=CC(C)NC(=O)C(Oc1ccc2ncc(Br)cc2c1)SC (stereo not drawn) [Compound No. 94, 2-(3-Bromo-quinolin-6-yloxy)-N-(2-methoxyimino-1-methyl-ethyl)-2-methylsulfanyl-acetamide]
≥ 60%: pest or weed control at 200 ppm [7] | pest or weed control at 200 ppm [8] | inhibition of growth at 200 ppm [1] | pest or weed control at 200 ppm [3] | pest or weed control at 200 ppm [4] | inhibition of growth at 20 ppm [5] | pest or weed control at 200 ppm [9] | inhibition of growth at 200 ppm [6]

C#CCOCC(C)(C=NOC)NC(=O)C(Oc1ccc2ncc(C#C)cc2c1)SC (stereo not drawn) [Compound No. 62, 2-(3-Ethynyl-quinolin-6-yloxy)-N-(2-methoxyimino-1-methyl-1-prop-2-ynyloxymethyl-ethyl)-2-methylsulfanyl-acetamide]
≥ 60%: pest or weed control at 200 ppm [7] | pest or weed control at 200 ppm [8] | pest or weed control at 200 ppm [2] | pest or weed control at 200 ppm [3] | pest or weed control at 200 ppm [4] | inhibition of growth at 20 ppm [5] | pest or weed control at 200 ppm [9] | inhibition of growth at 200 ppm [6]
